For one assay, the species on record is Homo sapiens. Briefly: Selectivity ratio of Ki for human MT1 receptor to Ki for human MT2 receptor.
For assay [1], the target named is T1, Melatonin receptor type 1A (Homo sapiens, UniProt P48039). Briefly: Displacement of 2-[125I]iodomelatonin from human MT1 receptor expressed in CHO cells by gamma counting. It is filed as cell-based.
For assay [2], the target named is T2, Melatonin receptor type 1B (Homo sapiens, UniProt P49286).
T2 sequence (P49286 whole entry): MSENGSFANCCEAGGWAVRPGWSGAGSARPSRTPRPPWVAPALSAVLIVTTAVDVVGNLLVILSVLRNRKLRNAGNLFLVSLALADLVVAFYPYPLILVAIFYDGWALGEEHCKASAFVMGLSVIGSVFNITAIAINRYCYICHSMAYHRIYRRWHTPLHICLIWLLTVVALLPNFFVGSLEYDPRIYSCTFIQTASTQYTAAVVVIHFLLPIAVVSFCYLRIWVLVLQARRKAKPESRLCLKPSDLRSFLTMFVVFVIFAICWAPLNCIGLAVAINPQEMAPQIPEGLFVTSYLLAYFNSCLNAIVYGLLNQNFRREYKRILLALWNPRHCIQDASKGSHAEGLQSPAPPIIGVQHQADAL
Briefly: Displacement of 2-[125I]iodomelatonin from human MT2 receptor expressed in CHO cells by gamma counting. It is filed as cell-based.

Assay [3] addresses T3, Melatonin receptor type 1B (Homo sapiens) (UniProt P49286).
T3 sequence (whole entry): T2 sequence (P49286 whole entry)
As to the kind of experiment: Intrinsic activity at human MT2 receptor expressed in CHO cells assessed as inhibition of forskolin-induced cAMP accumulation at 10 nM. It is filed as functional, cell-based. A general note: Changes in cAMP serve as a functional read-out for many G protein-coupled receptors.

For assay [4], the target named is T1, Melatonin receptor type 1A. Briefly: Agonist activity at human MT1 receptor expressed in CHO cells assessed as inhibition of forskolin-induced cAMP accumulation at 1 uM. It counts as functional, cell-based.
The target in assay [5] is T1, Melatonin receptor type 1A. Briefly: Agonist activity at human MT1 receptor expressed in CHO cells assessed as inhibition of forskolin-induced cAMP accumulation. It is filed as functional, cell-based.
For assay [6], the target named is T1, Melatonin receptor type 1A. As to the kind of experiment: Agonist activity at human MT1 receptor expressed in CHO cells assessed as inhibition of forskolin-induced cAMP accumulation at 10 nM. It counts as functional, cell-based.

The source made the active and inactive calls. No cut-off for these calls is given here.

T1 sequence (P48039 whole entry): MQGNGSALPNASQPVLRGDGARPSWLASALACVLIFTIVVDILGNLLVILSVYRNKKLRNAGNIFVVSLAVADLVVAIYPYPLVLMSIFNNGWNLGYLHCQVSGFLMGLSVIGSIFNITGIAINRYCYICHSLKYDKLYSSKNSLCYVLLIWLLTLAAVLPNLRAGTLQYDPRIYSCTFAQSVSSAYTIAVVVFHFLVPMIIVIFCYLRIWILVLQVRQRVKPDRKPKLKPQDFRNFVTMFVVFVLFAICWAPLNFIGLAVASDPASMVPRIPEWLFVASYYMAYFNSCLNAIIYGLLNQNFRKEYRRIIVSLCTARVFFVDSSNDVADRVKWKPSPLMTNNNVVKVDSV

For `COc1ccc2c(c1)c(CCNC(C)=O)c1n2CCCN(C)C1`, the Ratio Ki in the assay filed under Homo sapiens amounted to 6. In addition, the Ki in assay [1] (read-out: pKi (converted)) was 5620 nM; in assay [2] (read-out: pKi (converted)), 891 nM.
On to `COc1ccc(N(C)Cc2[nH]c3ccc(OC)cc3c2CCNC(C)=O)cc1`, for which the Ki in assay [1] (read-out: Ki) came out at 8 nM; in assay [2] (read-out: Ki), 9 nM.
Turning to `COc1ccc2[nH]c(CN(C)c3ccc(Cl)cc3)c(CCNC(C)=O)c2c1`, the Ratio Ki in the assay filed under Homo sapiens worked out at 6. Besides, the Ki in assay [1] (read-out: pKi (converted)) is 257 nM; in assay [2] (read-out: pKi (converted)) it was 42.7 nM.
Consider `COc1ccc2c(c1)CC1Cn3c(c(CCNC(C)=O)c4cc(OC)ccc43)CN21` (centres undefined), for which the Ratio Ki in the assay listed under Homo sapiens turned out to be 4.4.
For the compound `COc1ccc2[nH]c(CN(C)c3ccc(C(F)(F)F)cc3)c(CCNC(C)=O)c2c1`, the values for the Ki in assay [1] (read-out: Ki) and in assay [2] (read-out: Ki) were 111 nM and 63 nM, respectively.
For `CCCC(=O)NCCc1c2n(c3ccccc13)CCN(C)C2`, the Ki in assay [1] (read-out: pKi (converted)) was 257 nM; in assay [2] (read-out: pKi (converted)) it was 85.1 nM.
Consider `COc1ccc2c(c1)c(CCNC(C)=O)c1n2CCN(C)C1`, for which the results for the Ki in assay [1] (read-out: pKi (converted)) and in assay [2] (read-out: pKi (converted)) were 11.7 nM and 7.76 nM, respectively.
As a reminder, the inhibition is the relative decrease from the control value, in per cent. On to `COc1ccc2[nH]c(CN(C)c3ccccc3)c(CCNC(C)=O)c2c1`, for which, in the assay filed under Homo sapiens, the Ratio Ki was 8. Also, the results for the Ki in assay [1] (read-out: pKi (converted)) and in assay [2] (read-out: pKi (converted)) were 15.5 nM and 2.29 nM, respectively. In addition, the outcome in assay [3] was inactive. Further, in assay [4], the inhibition was determined as 60%.
The IC50 is the concentration at which inhibition is half-maximal. In the case of `CCCC(=O)NCCc1c2n(c3ccc(OC)cc13)CCN(C)C2`, the Ki in assay [1] (read-out: pKi (converted)) was 6.61 nM; in assay [2] (read-out: pKi (converted)) it was 6.92 nM. Moreover, in assay [5], the concentration for half-maximal inhibition (IC50) was determined as 3.14 nM. For the same compound, the inhibition in assay [6] was found to be 12%. For the same compound, in assay [3], the result was inactive.
Regarding `COc1ccc2[nH]c(CN(C)Cc3ccccc3)c(CCNC(C)=O)c2c1`, the Ki was 1290 nM in assay [1] (read-out: pKi (converted)) and 661 nM in assay [2] (read-out: pKi (converted)).
`CCN(C)Cc1[nH]c2ccc(OC)cc2c1CCNC(C)=O`: the Ki in assay [1] (read-out: pKi (converted)) was 1000 nM; in assay [2] (read-out: pKi (converted)) it was 224 nM.

For the origin of these results see ChEMBL document CHEMBL1152952, “Synthesis and pharmacological evaluation of 1,2,3,4-tetrahydropyrazino[1,2-a]indole and 2-[(phenylmethylamino)methyl]-1H-indole analogues as novel melatoninergic ligands” (Bioorg Med Chem, 2009).
